Measured values: patent US4312867A, “Antibacterial compounds, processes for their preparation and compositions containing them” (Beecham Group Limited, priority 1979, dated 1982)
In brackets after ≈: the same amount, converted by molar mass.

Columns and labels:
Assay type in all cases: cell-based
E. coli E1 = assay: MIC veterinary bacteria (Table 2), serial dilution in agar; conditions: Escherichia coli, diagnostic sensitivity test agar
E. coli NCTC 10418 [1] = assay: as above; conditions: Escherichia coli, NCTC10418
Bord bronchiseptica B08 = assay: as above; conditions: diagnostic sensitivity test agar
Strep agalactiae SPA1 = assay: as above; conditions: diagnostic sensitivity test agar
[2] = test system: Haemophilus influenzae Q1; assay: MIC human bacteria (Table 1), serial dilution in nutrient agar; conditions: Haemophilus influenzae, Q1
Bacillus subtilis 6633 = assay: as above; conditions: nutrient agar with 5% chocolated horse blood
M dispar NCTC 10125 = assay: in vitro anti-mycoplasmal MIC, Friis' broth (Table 3)
Experimental: (§1) The minimum inhibitory concentrations (MIC) of the examples were determined by either:
(§2) (i) in Friis' broth using microtitre plates, by modification of the metabolic-inhibition test (Taylor-Robinson, Post Frad, Med. J., 1967, 43, 100).

M fermentans MWKL4 [3] = assay: as above
Experimental: as §1, §2

M pulmonis JB [4] = assay: as above
Experimental: as §1, §2

[5] = test system: M suipneumoniae J2206/183b; assay: as above
Experimental: as §1, §2

M pneumoniae ATCC 15492 [6] = assay: as above
Experimental: as §1, §2

M pneumoniae 427a [7] = assay: as above
Experimental: as §1, §2

M dispar H225 = assay: as above
Experimental: as §1, §2

M suipneumoniae Str 11 = assay: as above
Experimental: as §1, §2

Past multocida PA1 = assay: MIC veterinary bacteria (Table 2), serial dilution in agar; conditions: diagnostic sensitivity test agar
S. typhimurium S18 = assay: as above; conditions: Salmonella enterica, diagnostic sensitivity test agar
Strep faecalis I = assay: MIC human bacteria (Table 1), serial dilution in nutrient agar; conditions: nutrient agar with 5% chocolated horse blood
[8] = test system: Pasteurella multocida 1633; assay: as above; conditions: Pasteurella multocida, 1633
E. coli ESS = assay: as above; conditions: Escherichia coli; E. coli ESS; nutrient agar with 5% chocolated horse blood; read-out: MIC
Strep uberis SPU1 = assay: MIC veterinary bacteria (Table 2), serial dilution in agar; conditions: diagnostic sensitivity test agar
[9] = test system: Staph aureus 152 (pen. sens); assay: as above; conditions: Staphylococcus aureus, diagnostic sensitivity test agar
Sarcina lutea 8340 = assay: MIC human bacteria (Table 1), serial dilution in nutrient agar; conditions: Micrococcus luteus, nutrient agar with 5% chocolated horse blood, read-out: MIC
[10] = test system: Staph aureus B4 (pen. resis); assay: MIC veterinary bacteria (Table 2), serial dilution in agar; conditions: Staphylococcus aureus
Strep pyogenes B 2788 = assay: MIC human bacteria (Table 1), serial dilution in nutrient agar; conditions: nutrient agar with 5% chocolated horse blood
Strep pyogenes C 2761 = assay: as above; conditions: nutrient agar with 5% chocolated horse blood
Staph aureus Oxford [11] = assay: as above; conditions: Staphylococcus aureus, nutrient agar with 5% chocolated horse blood
E. coli NCTC 10418 [12] = assay: as above; conditions: Escherichia coli, NCTC10418
Ps. aeruginosa 10662 = assay: as above; conditions: Pseudomonas aeruginosa, nutrient agar with 5% chocolated horse blood
Strep dysgalaciae SPD1 = assay: MIC veterinary bacteria (Table 2), serial dilution in agar; conditions: diagnostic sensitivity test agar
M synoviae ATCC 25204 = assay: in vitro anti-mycoplasmal MIC, Friis' agar (Table 3)
Experimental: as §1
(§3) or (ii) by serial dilution in Friis' agar medium.

M alkalescens NCTC 10135 = assay: as above
Experimental: as §1, §3

M fermentans MWKL4 [13] = assay: as above
Experimental: as §1, §3

[14] = test system: M bovigenitalium ATCC 14173; assay: as above
Experimental: as §1, §3

M hyorhinis ATCC 23234 = assay: as above
Experimental: as §1, §3

M pulmonis JB [15] = assay: as above
Experimental: as §1, §3

M arthritidis ATCC 14124 = assay: as above
Experimental: as §1, §3

M gallisepticum S6 = assay: as above
Experimental: as §1, §3

M hyosynoviae ATCC 25591 = assay: as above
Experimental: as §1, §3

M pneumoniae ATCC 15492 [16] = assay: as above
Experimental: as §1, §3

M pneumoniae 427a [17] = assay: as above
Experimental: as §1, §3

Staph aureus Russell = assay: MIC human bacteria (Table 1), serial dilution in nutrient agar; conditions: Staphylococcus aureus, nutrient agar with 5% chocolated horse blood
Staph aureus W2827 = assay: as above; conditions: Staphylococcus aureus, nutrient agar with 5% chocolated horse blood
K. aerogenes A = assay: as above; conditions: Klebsiella aerogenes, nutrient agar with 5% chocolated horse blood
S. dublin S7 = assay: MIC veterinary bacteria (Table 2), serial dilution in agar; conditions: Salmonella enterica, diagnostic sensitivity test agar
[18] = test system: Corynebacterium pyogenes CY1; assay: as above; conditions: Trueperella pyogenes, diagnostic sensitivity test agar
Past haemolytica PA5 = assay: as above; conditions: diagnostic sensitivity test agar
[19] = test system: Erysipelothrix rhusiopathiae NCTC 8163; assay: as above; conditions: NCTC8163; Erysipelothrix rhusiopathiae NCTC 8163; diagnostic sensitivity test agar; read-out: MIC
P. mirabilis 889 = assay: MIC human bacteria (Table 1), serial dilution in nutrient agar; conditions: Proteus mirabilis, 889
Strep pyogenes A 64/848 = assay: as above; conditions: nutrient agar with 5% chocolated horse blood
Past multocida PA2 = assay: MIC veterinary bacteria (Table 2), serial dilution in agar; conditions: diagnostic sensitivity test agar
[20] = test system: Strep suis (group D) SPS11; assay: as above; conditions: diagnostic sensitivity test agar
[21] = test system: Corynebacterium xerosis 9755; assay: MIC human bacteria (Table 1), serial dilution in nutrient agar; conditions: nutrient agar with 5% chocolated horse blood, read-out: MIC
[22] = test system: Haemophilus influenzae Wy21; assay: as above; conditions: Haemophilus influenzae, WY21
Bord bronchiseptica B09 = assay: MIC veterinary bacteria (Table 2), serial dilution in agar; conditions: diagnostic sensitivity test agar
Staph aureus Oxford [23] = assay: as above; conditions: Staphylococcus aureus

## C/C(=C\C(=O)OCCCS(N)(=O)=O)CC1OCC(CC2OC2C(C)C(C)O)C(O)C1O (stereo not shown) [Example 1, 3-Sulphamoylpropyl monate A]
E. coli E1
  MIC: > 80 µg/mL
E. coli NCTC 10418 [1]
  MIC: > 80 µg/mL
Bord bronchiseptica B08
  MIC: 80 µg/mL (≈ 172 µM)
Strep agalactiae SPA1
  MIC: 2.5 µg/mL (≈ 5.37 µM)
[2]
  MIC: 0.05 µg/mL (≈ 0.107 µM)
Bacillus subtilis 6633
  MIC: 10 µg/mL (≈ 21.5 µM)
M dispar NCTC 10125
  MIC: 0.078 µg/mL (≈ 0.168 µM)
M fermentans MWKL4 [3]
  MIC: 0.039 µg/mL (≈ 0.0838 µM)
M pulmonis JB [4]
  MIC: 0.02 µg/mL (≈ 0.043 µM)
[5]
  MIC: 0.312 µg/mL (≈ 0.67 µM)
M pneumoniae ATCC 15492 [6]
  MIC: 2.5 µg/mL (≈ 5.37 µM)
M pneumoniae 427a [7]
  MIC: 2.5 µg/mL (≈ 5.37 µM)
M dispar H225
  MIC: 0.039 µg/mL (≈ 0.0838 µM)
M suipneumoniae Str 11
  MIC: 0.078 µg/mL (≈ 0.168 µM)
Past multocida PA1
  MIC: 0.625 µg/mL (≈ 1.34 µM)
S. typhimurium S18
  MIC: > 80 µg/mL
Strep faecalis I
  MIC: > 100 µg/mL
[8]
  MIC: 0.5 µg/mL (≈ 1.07 µM)
E. coli ESS
  MIC: 25 µg/mL (≈ 53.7 µM)
Strep uberis SPU1
  MIC: 1.25 µg/mL (≈ 2.68 µM)
[9]
  MIC: 20 µg/mL (≈ 43 µM)
Sarcina lutea 8340
  MIC: > 100 µg/mL
[10]
  MIC: 40 µg/mL (≈ 85.9 µM)
Strep pyogenes B 2788
  MIC: 2.5 µg/mL (≈ 5.37 µM)
Strep pyogenes C 2761
  MIC: 2.5 µg/mL (≈ 5.37 µM)
Staph aureus Oxford [11]
  MIC: 50 µg/mL (≈ 107 µM)
E. coli NCTC 10418 [12]
  MIC: > 100 µg/mL
Ps. aeruginosa 10662
  MIC: > 100 µg/mL
Strep dysgalaciae SPD1
  MIC: 2.5 µg/mL (≈ 5.37 µM)
M synoviae ATCC 25204
  MIC: < 0.02 µg/mL
M alkalescens NCTC 10135
  MIC: 0.039 µg/mL (≈ 0.0838 µM)
M fermentans MWKL4 [13]
  MIC: 0.078 µg/mL (≈ 0.168 µM)
[14]
  MIC: 0.039 µg/mL (≈ 0.0838 µM)
M hyorhinis ATCC 23234
  MIC: 0.312 µg/mL (≈ 0.67 µM)
M pulmonis JB [15]
  MIC: 0.039 µg/mL (≈ 0.0838 µM)
M arthritidis ATCC 14124
  MIC: > 10 µg/mL
M gallisepticum S6
  MIC: > 10 µg/mL
M hyosynoviae ATCC 25591
  MIC: 0.156 µg/mL (≈ 0.335 µM)
M pneumoniae ATCC 15492 [16]
  MIC: 5 µg/mL (≈ 10.7 µM)
M pneumoniae 427a [17]
  MIC: 2.5 µg/mL (≈ 5.37 µM)
Staph aureus Russell
  MIC: 50 µg/mL (≈ 107 µM)
Staph aureus W2827
  MIC: 100 µg/mL (≈ 215 µM)
K. aerogenes A
  MIC: > 100 µg/mL
S. dublin S7
  MIC: > 80 µg/mL
[18]
  MIC: > 80 µg/mL
Past haemolytica PA5
  MIC: 10 µg/mL (≈ 21.5 µM)
[19]
  MIC: > 80 µg/mL
P. mirabilis 889
  MIC: 100 µg/mL (≈ 215 µM)
Strep pyogenes A 64/848
  MIC: 0.5 µg/mL (≈ 1.07 µM)
Past multocida PA2
  MIC: 0.156 µg/mL (≈ 0.335 µM)
[20]
  MIC: 80 µg/mL (≈ 172 µM)
[21]
  MIC: > 100 µg/mL
[22]
  MIC: 0.05 µg/mL (≈ 0.107 µM)
Bord bronchiseptica B09
  MIC: 20 µg/mL (≈ 43 µM)
Staph aureus Oxford [23]
  MIC: 40 µg/mL (≈ 85.9 µM)
